Literature values in patent US12009562B2, “High solubility iron hexacyanides” (Lockheed Martin Energy, LLC, priority 2012, dated 2024).

O.O.O.O.O.O.O.O.O.O.[C-]#N.[C-]#N.[C-]#N.[C-]#N.[C-]#N.[C-]#N.[Fe+2].[Na+].[Na+].[Na+].[Na+] [Na4Fe(CN)6.10H2O]
concentration reported upon saturating 2 M NaOH: ~0.6 M
